Test results reported in patent publication US20220227761A1, “OXOACRIDINYL ACETIC ACID DERIVATIVES AND METHODS OF USE” (STINGTHERA, INC., priority 2019, published 2022).
pIC50: −log10 of the molar value.

Key:
[1] = tested on: STING protein; IRF/IFN signaling in THP-1 R232 cells; test: Cell based reporter assay, THP-1 R232 IRF-luc; settings: Homo sapiens, THP1-dual-KI R232 cells, IRF luciferase reporter; for Emax: maximum measured activity, read-out: THP 1-dual-KI R232_IRF(Luciferase)_Activity Maximum measured (%); for pIC50: read-out: THP 1-dual-KI R232_IRF(Luciferase) IC50
From the text: Cell reporter assays were developed to measure the ability of compounds of the application to activate the STING protein and activate both IRF/IFN and the NFkB signaling pathways in the myeloid derived cell line THP-1, which is commercially available from several suppliers. Briefly, THP-1 monocytes were transfected and selected for stable integration of 2 reporter constructs. Clones incorporating stably integrated vectors were further selected by antibiotic resistance to blastocidin and zeocin. The reporter constructs included: (1) firefly luciferase reporter gene under the control of an ISG54 promoter fused to five interferon (IFN)-stimulated response elements to measure IRF transcription factor binding activity and (2) secreted embryonic alkaline phosphatase reporter gene under transcription control of an IFN-beta minimal promoter fused to 5 copies of the NFkB consensus transcriptional response element and 3 copies of the c-Rel binding site.
The resulting THP-1 cell line was further modified to incorporate 3 amino acid point mutations (H71R A230G Q293R). This modification of the native TMEM173 gene in THP-1 cells (HAQ) was designed to produce a cell reporter that expressed the most common allelic variant in the human population (THP-1 R232, available from InvivoGen). Alternatively, the TMEM173 gene was knocked out to provide a congenic control to counter-screen for compound activation that was independent of the STING protein (THP-1 STING KO).
Once cell lines were established, reporter assay protocols were developed and optimized to screen small molecule compounds for agonist activity. Assay optimization for efficacy and Z′ value included titration of the following parameters:
• 1. Cell pre-activation with PMA • 2. Cell seeding density • 3. DMSO tolerance • 4. Media selection • 5. FBS concentration • 6. Incubation time • 7. Co-Assessment of cell viability by CTG assay • 8. Appropriate HPE and ZPE controls • 9. Dose Response Titration
• 1. No pre-activation with PMA • 2. 5×10^4 cells/well in 96 well plate format • 3. <0.5% DMSO • 4. RPMI 1640+2.5 mg/ml glucose • 5. 10% FBS • 6. 14-18 hr incubation • 7. Cell Titer Glo reagent (Promega) following supernatant removal • 8. […] 8 point, 2 fold, duplicate starting at 150 μM

hSTING-R232 (aa140-379) = hSTING-R232 (aa140-379) (Homo sapiens, UniProt Q86WV6, H232R); test: STING differential scanning fluorimetry (DSF) assay, hSTING WT; settings: shift in melting temperature apo vs ligand-bound
Chain of hSTING-R232 (aa140-379) (Q86WV6 140-379 H232R): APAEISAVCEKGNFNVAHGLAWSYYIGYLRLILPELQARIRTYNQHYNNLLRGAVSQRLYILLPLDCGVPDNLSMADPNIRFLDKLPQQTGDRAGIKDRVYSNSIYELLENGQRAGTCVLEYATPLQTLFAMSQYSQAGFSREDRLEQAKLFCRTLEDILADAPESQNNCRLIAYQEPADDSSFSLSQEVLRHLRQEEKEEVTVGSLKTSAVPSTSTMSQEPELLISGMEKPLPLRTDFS
Method: A STING DSF assay was performed to determine protein thermostability shift in response to small molecule ligand binding. A STING thermnostability shift assay based on differential scanning fluorimetry was used to measure (1) the net shift in melting temperature (ΔTm) between the apo and ligand-bound states of the STING protein and (2) the concentration of the thermal denaturation transition (EC50) as a surrogate measure of binding affinity (Kd). […] Protein in assay buffer was transferred to a 384 well plate and incubated with the hydrophobic fluorescent dye SYBR Orange. A temperature ramp was applied to the plate and the resulting dye fluorescence was plotted as a function of temperature. The first derivative of this function (dF/dT) was then used to extrapolate the melting temperature of the protein at various concentrations of compound and determine the thermal denaturation profile of a protein/compound complex.
5 μM purified Target STING Protein • 3. 8 μM Sypro Orange Dye • 4. Buffer: 100 mM NaCl, 30 mM HEPES, pH 7.5 • 5. Thermal Ramp: 0.5° C./min • 6. <1% DMSO • 7. 11 point, 2 fold dilution, duplicate, 300 μM high concentrations • 8.

[2] = molecular target: human STING protein (140-379), WT (Homo sapiens, UniProt Q86WV6, H232R); test: Radiometric filtration binding competition assay (FBA), hSTING-WT; settings: WT-hSWAT IC50 (μM), WT_FBA_HIS-SUMO-hSWAT; wild-type human STING; competition with [H3] 2′3′cGAMP
Chain of human STING protein (140-379), WT (Q86WV6 140-379 H232R): as above

Structure (SMILES)	pIC50 [1]	WT_DSF_hSWAT Tm Shift (° C.) (hSTING-R232 (aa140-379))	IC50 [2]	Emax [1]
CCNc1ccc2c(=O)c3ccc(Cl)c(OC)c3n(CC(=O)O)c2c1 [Compound 68]	4.00 to 4.30	C (“C” = 2-7° C.)	20 to 100 µM	> 50%
COCCOc1cccc2c(=O)c3ccc(Cl)c(OC)c3n(CC(=O)O)c12 [Compound 60]	< 3.82	B (“B” = 0-2° C.)	> 300 µM	5 to 25%
COc1c(Cl)ccc2c(=O)c3cccc(OCCO)c3n(CC(=O)O)c12 [Compound 61]	< 3.82	B (“B” = 0-2° C.)	> 300 µM	5 to 25%
COc1c(Cl)ccc2c(=O)c3ccc(F)cc3n(CC(=O)O)c12 [Compound 67]	< 3.82	C (“C” = 2-7° C.)	> 300 µM	–
CN(C)c1c(Cl)ccc2c(=O)c3ccc(C4CCC4)cc3n(CC(=O)O)c12 [Compound 35]	> 4.30	D (“D” >7° C.)	< 20 µM	> 50%
CC/C=C(\CC)c1ccc2c(=O)c3ccc(Cl)c(N(C)C)c3n(CC(=O)O)c2c1 [Compound 19]	> 4.30	D (“D” >7° C.)	< 20 µM	> 50%
CN(C)c1c(Cl)ccc2c1N(CC(=O)O)c1cc(Nc3ccccc3F)ccc1N2C [Compound 78]	> 4.30	D (“D” >7° C.)	< 20 µM	> 50%
CN(C)c1c(Cl)ccc2c(=O)c3ccc(-c4cccnc4)cc3n(CC(=O)O)c12 [Compound 9]	> 4.30	C (“C” = 2-7° C.)	< 20 µM	> 50%
CN(C)c1c(Cl)ccc2c(=O)c3cc(-c4ccccc4)ccc3n(CC(=O)O)c12 [Compound 30]	> 4.30	D (“D” >7° C.)	< 20 µM	25 to 50%
COc1c(Cl)ccc2c(=O)c3ccc(C4=CCN(C)CC4)cc3n(CC(=O)O)c12 [Compound 54]	< 3.82	C (“C” = 2-7° C.)	> 300 µM	5 to 25%
CC(C)Nc1cc2c(cc1Cl)c(=O)c1ccc(Cl)c(N(C)C)c1n2CC(=O)O [Compound 86]	> 4.30	D (“D” >7° C.)	< 20 µM	> 50%
CN(C)c1c(Cl)ccc2c(=O)c3ccc(-c4ccco4)cc3n(CC(=O)NS(C)(=O)=O)c12 [Compound 56]	< 3.82	D (“D” >7° C.)	< 20 µM	–
CN(C)c1c(Cl)ccc2c(=O)c3cc(Cl)c(C(C)(C)C)cc3n(CC(=O)O)c12 [Compound 88]	> 4.30	D (“D” >7° C.)	< 20 µM	> 50%
Cc1ccc2c(=O)c3c(O)cc(Cl)c(N(C)C)c3n(CC(=O)O)c2c1 [Compound 51]	3.82 to 4.00	D (“D” >7° C.)	20 to 100 µM	> 50%
CN(C)c1c(Cl)ccc2c(=O)c3cc(Cl)c(C(C)(C)C#N)cc3n(CC(=O)O)c12 [Compound 87]	> 4.30	D (“D” >7° C.)	< 20 µM	> 50%
CN(C)c1c(Cl)ccc2c(=O)c3cc(Br)ccc3n(CC(=O)O)c12 [Compound 29]	> 4.30	B (“B” = 0-2° C.)	> 300 µM	> 50%
CN(C)c1c(Cl)ccc2c(=O)c3ccc(C4=CCCCC4)cc3n(CC(=O)O)c12 [Compound 23]	> 4.30	D (“D” >7° C.)	< 20 µM	> 50%
CN(C)c1c(Cl)ccc2c(=O)c3ccc(-n4ccnc4)cc3n(CC(=O)O)c12 [Compound 5]	> 4.30	C (“C” = 2-7° C.)	20 to 100 µM	> 50%
CCC(C)(C)c1ccc2c(=O)c3ccc(Cl)c(N(C)C)c3n(CC(=O)O)c2c1 [Compound 22]	4.00 to 4.30	D (“D” >7° C.)	< 20 µM	> 50%
Cc1ccc2c(=O)c3ccc(Cl)c(C(C)C)c3n(CC(=O)O)c2c1 [Compound 46]	< 3.82	D (“D” >7° C.)	> 300 µM	5 to 25%

The next lines start with results.

pIC50 [1]	WT_DSF_hSWAT Tm Shift (° C.) (hSTING-R232 (aa140-379))	IC50 [2]	Structure (SMILES)	Emax [1]
> 4.30	D (“D” >7° C.)	20 to 100 µM	C=C(C)c1ccc2c(=O)c3ccc(Cl)c(OC)c3n(CC(=O)O)c2c1 [Compound 65]	> 50%
> 4.30	D (“D” >7° C.)	< 20 µM	Cc1ccc2c(=O)c3ccc(C(C)(C)C)cc3n(CC(=O)O)c2c1N(C)C [Compound 39]	> 50%
> 4.30	D (“D” >7° C.)	20 to 100 µM	CN(C)c1c(Cl)ccc2c(=O)c3ccc(C4(C#N)CC4)cc3n(CC(=O)O)c12 [Compound 84]	> 50%
> 4.30	D (“D” >7° C.)	< 20 µM	CN(C)c1c(Cl)ccc2c(=O)c3ccc(C4=CCN(C(=O)OC(C)(C)C)CC4)cc3n(CC(=O)O)c12 [Compound 15]	> 50%
> 4.30	D (“D” >7° C.)	< 20 µM	CC(C)c1ccc2c(=O)c3c(O)cc(Cl)c(N(C)C)c3n(CC(=O)O)c2c1 [Compound 21]	> 50%
> 4.30	D (“D” >7° C.)	< 20 µM	CN(C)c1c(Cl)ccc2c(=O)c3ccc(Nc4ccncc4)cc3n(CC(=O)O)c12 [Compound 81]	> 50%
> 4.30	D (“D” >7° C.)	< 20 µM	C=C(C)c1c(Cl)ccc2c(=O)c3ccc(C)cc3n(CC(=O)O)c12 [Compound 47]	> 50%
> 4.30	D (“D” >7° C.)	< 20 µM	CN(C)c1c(Cl)ccc2c(=O)c3ccc(Nc4c(F)cccc4F)cc3n(CC(=O)O)c12 [Compound 92]	> 50%
> 4.30	D (“D” >7° C.)	< 20 µM	C=Cc1cc2c(cc1Cl)c(=O)c1ccc(Cl)c(N(C)C)c1n2CC(=O)O [Compound 89]	> 50%
> 4.30	D (“D” >7° C.)	< 20 µM	C=C(C)c1ccc2c(=O)c3ccc(Cl)c(N(C)C)c3n(CC(=O)O)c2c1 [Compound 24]	> 50%
> 4.30	D (“D” >7° C.)	< 20 µM	COc1ccccc1Nc1ccc2c(=O)c3ccc(Cl)c(N(C)C)c3n(CC(=O)O)c2c1 [Compound 90]	> 50%
> 4.30	D (“D” >7° C.)	< 20 µM	CC(C)c1ccc2c(=O)c3ccc(Cl)c(N(C)C)c3n(CC(=O)O)c2c1 [Compound 58]	> 50%
> 4.30	D (“D” >7° C.)	< 20 µM	CN(C)c1c(Cl)ccc2c(=O)c3ccc(-n4cccc4)cc3n(CC(=O)O)c12 [Compound 7]	> 50%
> 4.30	D (“D” >7° C.)	20 to 100 µM	CN(C)c1c(Cl)ccc2c(=O)c3ccc(-c4ccnnc4)cc3n(CC(=O)O)c12 [Compound 71]	> 50%
> 4.30	D (“D” >7° C.)	20 to 100 µM	COc1ccc2c(=O)c3ccc(Cl)c(N(C)C)c3n(CC(=O)O)c2c1 [Compound 2]	> 50%
> 4.30	D (“D” >7° C.)	< 20 µM	CN(C)c1c(Cl)ccc2c(=O)c3cc(Cl)c(Nc4ccccc4)cc3n(CC(=O)O)c12 [Compound 91]	> 50%
> 4.30	D (“D” >7° C.)	< 20 µM	CCc1ccc2c(=O)c3ccc(Cl)c(N(C)C)c3n(CC(=O)O)c2c1 [Compound 37]	> 50%
